This is an account of results in US10912761B2, “Methods and compositions involving RAD51 inhibitors” (The University of Chicago, priority 2012, dated 2021).

Data set [1] has as its target T1, human RAD51 protein (Homo sapiens, UniProt Q06609).
T1 sequence (Q06609 1-339): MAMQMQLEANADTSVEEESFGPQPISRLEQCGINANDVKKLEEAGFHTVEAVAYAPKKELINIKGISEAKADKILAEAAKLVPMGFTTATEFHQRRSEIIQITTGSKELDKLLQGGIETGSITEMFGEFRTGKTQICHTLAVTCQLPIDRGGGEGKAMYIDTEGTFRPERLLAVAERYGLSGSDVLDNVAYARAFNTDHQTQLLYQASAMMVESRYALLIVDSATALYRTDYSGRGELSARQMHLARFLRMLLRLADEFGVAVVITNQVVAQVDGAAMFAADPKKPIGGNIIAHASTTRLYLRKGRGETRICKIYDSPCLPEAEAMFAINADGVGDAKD
Nature of the data set: FP-based DNA binding assay (RAD51 binding to fluorescently labeled ssDNA). It counts as biochemical. Details: made in house. Particulars: for time dependence of inhibitory activity on the DNA binding activity of RAD51: compound added after the protein has been released from the beads (FIG. 2B). The protocol:
The synthesized compounds were tested for biological activity in a two-stage manner. They were first evaluated for their ability to inhibit the binding of human RAD51 protein to ssDNA. This primary assay utilizes a fluorescence polarization (FP) based method that involves incubation of purified RAD51 protein with oligonucleotides, which are end-labeled with a fluorescent tag. The binding of RAD51 to this substrate ssDNA is quantified as a function of polarization of light emitted by the fluorescent tag. Chemical analogs were then tested further using secondary cell-based assays. Since cell lethality from RI-1 is thought to be a function of cellular RAD51 inhibition for RI-1, LD50 values were used as a surrogate measurement of in vivo activity against RAD51 in cells. This cell-based assay was also simultaneously utilized to evaluate for compound-induced sensitization of cells to the cross-linking chemotherapeutic drug MMC, thereby confirming that toxic effects are secondary to HR inhibition.
Human RAD51 protein was prepared as previously described (Budke et al., 2012). RAD51 was incubated with 100 nM (nucleotide concentration) of a 45-mer oligo-dT 5′ Alexa 488 end-labeled substrate. Binding was measured as a function of fluorescence polarization (FP) of the Alexa 488 tag. 50 μl reactions were performed in 20 mM HEPES, pH 7.5, 2 mM ATP, 10 mM MgCl2, 30 mM NaCl, 2% glycerol, 250 μM BSA, and 4% DMSO. Black polystyrene flat-bottom 384-well reaction plates were read using a Tecan Infinite F200 Pro plate reader, equipped with 485(20)/535(25) FP filters. For experiments used to determine IC50 values, RAD51 concentrations (typically 190-290 nM) were selected to generate FP signal of 50-80% maximum in the absence of any inhibitory compound. Reported IC50 values represent the mean result of at least three replicate wells, and reported errors connote standard deviation.

The subject of another data set is immortalized human cells. Nature of the data set: MMP-1-60 toxicity to immortalized human cells with or without pre-incubation in media. The conditions noted are these: 4 hours of pre-incubation with tissue culture media vs. no pre-incubation. In kind it is cell-based. The method, then:
FIGS. 6A-6B: A. ssDNA binding activity of RAD51 in response to RAD51 antagonists. […] B. MMP-1-60 toxicity to immortalized human cells.
HEK293 cells were plated into 96-well tissue culture plates at a density of 300 cells per well in the presence or absence of 50 nM MMC (Ben Venue Laboratories) for 24 hours at 37° C., 5% CO2. Media was subsequently replaced with fresh media containing 0.5% DMSO plus a candidate compound for an additional 24 hours. Compounds were then removed, and cultures were allowed to grow to a 50-70% confluence. Average survival from at least three replicates was measured using CellGlo reagent (Promega) or via a previously described sulforhodamine B method (Jayathilaka et al., 2008).

In data set [2] the target is T1, human RAD51 protein. Nature of the data set: DNA binding competition assay: bead-immobilized RAD51 treated with compound, washed, cleaved, tested by FP (reversible vs. irreversible inhibition). The conditions noted are these: washed extensively, protein cleaved from beads (FIG. 2C).
Method: Reversible vs. irreversible inhibition of RAD51 by compound was tested by incubating compounds with RAD51 while still attached to beads and prior to washing. […] Reversible vs. irreversible inhibition of RAD51. Biotinylated RAD51 was immobilized on streptavidin polyacrylamide beads. The RAD51-coated beads were incubated with compound and subsequently washed extensively to remove any compound that was not covalently attached. The treated protein was subsequently cleaved from the beads and tested for DNA binding activity using our standard FP-based assay.
Tagged RAD51 was immobilized on streptavidin-conjugated polyacrylamide beads (Ultralink, Pierce) and incubated for 30 min at 37° C. with candidate compounds in 20 mM HEPES, pH 7.5, 30 mM NaCl, 2% glycerol, 4% DMSO. The polyacrylamide beads were then washed twice with ice-cold wash buffer (20 mM Tris-HCl, pH 8.0, 300 mM NaCl) containing 4% DMSO and then once with ice-cold wash buffer without DMSO. RAD51 protein was subsequently eluted from beads with TEV protease (gift from Phoebe Rice) and analyzed for DNA binding activity using the above FP-based DNA binding assay.
The nature of data set [3]: Glutathione stability experiments (HPLC). The conditions noted are these: L-glutathione 5 mol equiv, DMSO, 37° C., hourly HPLC; up to 24 hours. In kind it is physicochemical. The protocol: FIG. 1. Reaction of RI-1, RI-2, and 9b with glutathione. Glutathione is a tripeptide that contains a nucleophilic sulfhydryl group. Glutathione may react irreversibly with a Michael acceptor compound containing a suitable leaving group at the 4-position.
Compound (10 mg) and L-glutathione (5 mol equiv) were placed in a round-bottomed flask under argon and dissolved in DMSO (1 mL). The reaction was heated to 37° C. and stirred. Aliquots of the reaction mixture were removed every hour, including one at t=0 min, and analyzed by HPLC. Ratio of substrate and glutathione adduct was recorded and the expected glutathione adduct was then identified using mass spectrometry

In data set [4] the test system is SSA in HEK293 cells (SA-GFP reporter). Nature of the data set: Quantification of SSA efficiency in SA-GFP reporter cells. It counts as cell-based, human. The conditions noted are these: 24 hours. The protocol: (§1) FIG. 3. Relative DNA repair efficiencies. […] Reporter-containing HEK293 cells were electroporated with an I-SceI endonuclease-expressing plasmid, incubated with compounds as indicated for 24 hours, and subjected to FACS analysis 24 hours thereafter. […] The reporter construct that measures HR repair consists of two non-functional copies of green fluorescence protein (GFP), one of which is interrupted by an I-SceI endonuclease site. Induction of a DNA break at the I-SceI site can lead to repair by homologous gene conversion that generates a functional copy of GFP (Pierce et al., 1999). A second parallel assay makes use of cells that contain a different reporter that measures single-strand annealing (SSA), which is an alternative method of re-ligating DNA when HR cannot be completed. SSA efficiency is known to be elevated in situations where RAD51 function has been disrupted (Mansour et al., 2008, Stark et al., 2004, and Bennardo et al., 2008). […] HEK293 cells stably transfected with the DR-GFP or SA-GFP reporters were provided by Jeremy Stark (Bennardo et al., 2008). 0.5-1.0×10^7 cells at 80% confluence were electroporated with 30-60 μg pCβASce (or pCAGGS) in 4 mm cuvettes, using the following settings: 240-350 V, 975 μF. […] Compounds were removed and cells were incubated for an additional 24 hours in normal media, following which they were analyzed with a Becton-Dickinson FACScan. […]

In data set [5] the test system is HR repair in HEK293 cells (DR-GFP reporter). Nature of the data set: Quantification of HR efficiency in DR-GFP reporter cells. It counts as cell-based, human. The conditions noted are these: 24 hours. The protocol:
as §1

The test system of the next data set is HEK293 cells. Nature of the data set: Cell toxicity assay: sensitization to MMC. The conditions noted are these: 24 hours MMC, then 24 hours compound, 5-7 days drug-free. In kind it is cell-based, human.

Entries after “also recorded” stand apart in the source; their conditions may differ.

Regarding `COc1ccc(C2=C(SCCN(C)C)C(=O)N(c3ccc(Cl)c(Cl)c3)C2=O)cc1` [MMP-1-60, 1-(3,4-dichlorophenyl)-3-((2-(dimethylamino)ethyl)thio)-4-(4-methoxyphenyl)-1H-pyrrole-2,5-dione], the “RAD51 inhibitory activity (ssDNA binding), relative” value at human RAD51 protein [1] (FIG. 6A) was “intermediate to RI-1 and RI-2”. In addition, in the data set with immortalized human cells, the “cell toxicity with vs. without pre-incubation (stability)” value is listed as “comparable cell toxicity”.

With `O=C1C(Cl)=C(N2CCOCC2)C(=O)N1c1ccc(Cl)c(Cl)c1` [RI-1, 1-(3,4-Dichlorophenyl)-3-chloro-4-morpholino-1H-pyrrole-2,5-dione, reference compound], the “DNA binding activity of RAD51 treated with compound prior to washing” value on human RAD51 protein [2] (10 μM compound) is “significantly inactivated”. Also, at human RAD51 protein [1], the “time dependence of inhibitory activity on the DNA binding activity of RAD51” value was “time-dependent”. Besides, in data set [3], the reaction with glutathione entry is reported as “reduced glutathione reactivity”. The SSA efficiency result in data set [4] (20 μM) is listed as “stimulation of SSA”. Also, the HR repair efficiency entry in data set [5] (20 μM) is “inhibition of HR”.

Consider `COc1ccc(C2=C(N3CCOCC3)C(=O)N(c3ccc(Cl)c(Cl)c3)C2=O)cc1` [RI-2, 1-(3,4-Dichloro-phenyl)-3-(4-methoxy-phenyl)-4-morpholin-4-yl-pyrrole-2,5-dione], for which the “DNA binding activity of RAD51 treated with compound prior to washing” value on human RAD51 protein [2] (concentrations up to 240 μM) is “no measurable loss of DNA binding activity”. Further, the half-maximal inhibitory concentration (IC50) at human RAD51 protein [1] (RAD51 binding to ssDNA, FP, read-out: IC50 in the standard DNA binding assay) was determined as 44.2 µM. In addition, the “time dependence of inhibitory activity on the DNA binding activity of RAD51” value at human RAD51 protein [1] is given as “no time-dependent increase”. Also, in data set [3], the reaction with glutathione entry is on record as “no reactivity toward glutathione”. Further, in data set [4] (60 μM), the SSA efficiency entry is “very similar effects; also recorded: stimulation of SSA”. Moreover, in data set [5] (60 μM), the HR repair efficiency result is listed as “very similar effects; also recorded: inhibition of HR”. Moreover, the “sensitization to cross-linking chemotherapy (MMC)” value in the data set on HEK293 cells is reported as “sensitizes human cells to cross-linking chemotherapy”.

As to `O=C1C(I)=C(N2CCOCC2)C(=O)N1c1ccc(Cl)c(Cl)c1` [Compound 9b, 1-(3,4-Dichlorophenyl)-3-iodo-4-morpholino-1H-pyrrole-2,5-dione], the reaction with glutathione result in data set [3] was “no detectable compound at the first time point measured”.
